Experimental data published in PubChem BioAssay (NCI).
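Cells were grown in 96-well plates and exposed to each compound for 48 hours at five concentrations; endpoints were interpolated linearly between bracketing concentrations, or set to the highest concentration if not reached. At the GI50, growth is halved. Definition used: TGI = concentration required for complete inhibition of growth.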

Columns and labels:
Assay in all cases: inhibition of tumour cell growth, NCI panel, 48 h
HOP-62 NSCLC = tested on: HOP-62 NSCLC
MALME-3M melanoma = tested on: MALME-3M melanoma
RXF 393 renal = tested on: RXF 393 renal
OVCAR-3 ovarian = tested on: OVCAR-3 ovarian
HS 578T breast = tested on: HS 578T breast
OVCAR-4 ovarian = tested on: OVCAR-4 ovarian
DU-145 prostate = tested on: DU-145 prostate
SK-MEL-5 melanoma = tested on: SK-MEL-5 melanoma
NCI-H522 lung = tested on: NCI-H522 lung
NCI-H460 lung = tested on: NCI-H460 lung
SF-295 CNS = tested on: SF-295 CNS
K-562 leukemia = tested on: K-562 leukemia
PC-3 prostate = tested on: PC-3 prostate
HOP-92 NSCLC = tested on: HOP-92 NSCLC
LOX IMVI melanoma = tested on: LOX IMVI melanoma
SK-MEL-28 melanoma = tested on: SK-MEL-28 melanoma
MDA-MB-468 breast = tested on: MDA-MB-468 breast
SNB-19 CNS = tested on: SNB-19 CNS
HL-60(TB) leukemia = tested on: HL-60(TB) leukemia
KM12 colon = tested on: KM12 colon
ACHN renal = tested on: ACHN renal
SF-539 CNS = tested on: SF-539 CNS
T-47D breast = tested on: T-47D breast
IGROV1 ovarian = tested on: IGROV1 ovarian
BT-549 breast = tested on: BT-549 breast
RPMI-8226 leukemia = tested on: RPMI-8226 leukemia
OVCAR-8 ovarian = tested on: OVCAR-8 ovarian
CAKI-1 renal = tested on: CAKI-1 renal
UACC-62 melanoma = tested on: UACC-62 melanoma
MCF7 breast = tested on: MCF7 breast
786-0 renal = tested on: 786-0 renal
U251 CNS = tested on: U251 CNS
EKVX NSCLC = tested on: EKVX NSCLC
MOLT-4 leukemia = tested on: MOLT-4 leukemia
COLO 205 colon = tested on: COLO 205 colon
OVCAR-5 ovarian = tested on: OVCAR-5 ovarian
NCI/ADR-RES ovarian = tested on: NCI/ADR-RES ovarian
M14 melanoma = tested on: M14 melanoma
SW-620 colon = tested on: SW-620 colon
HCT-116 colon = tested on: HCT-116 colon
SR leukemia = tested on: SR leukemia
HCC-2998 colon = tested on: HCC-2998 colon
HCT-15 colon = tested on: HCT-15 colon
MDA-MB-435 = tested on: MDA-MB-435
SN12C renal = tested on: SN12C renal
A498 renal = tested on: A498 renal
NCI-H23 lung = tested on: NCI-H23 lung
CCRF-CEM leukemia = tested on: CCRF-CEM leukemia
NCI-H226 lung = tested on: NCI-H226 lung
SK-OV-3 ovarian = tested on: SK-OV-3 ovarian
HT29 colon = tested on: HT29 colon
TK-10 renal = tested on: TK-10 renal
SF-268 CNS = tested on: SF-268 CNS
UACC-257 melanoma = tested on: UACC-257 melanoma
A549 NSCLC = tested on: A549 NSCLC
SK-MEL-2 melanoma = tested on: SK-MEL-2 melanoma
SNB-75 CNS = tested on: SNB-75 CNS
MDA-MB-231 breast = tested on: MDA-MB-231 breast
UO-31 renal = tested on: UO-31 renal

## CC[C@]12C=CCN3CC[C@@]4(c5ccc(OC)cc5N(C)[C@H]4[C@@](O)(C(=O)OC)[C@@H]1OC(=O)CCCC[P+](C1CCCCC1)(C1CCCCC1)C1CCCCC1)[C@@H]32
HOP-62 NSCLC
  GI50: 3.9 µM
  TGI: 13.8 µM
MALME-3M melanoma
  GI50: 1.63 µM
  TGI: 3.7 µM
RXF 393 renal
  GI50: 1.24 µM
  TGI: 5.4 µM
OVCAR-3 ovarian
  GI50: 1.93 µM
  TGI: 10.9 µM
HS 578T breast
  GI50: 2.61 µM
  TGI: 8.67 µM
OVCAR-4 ovarian
  GI50: 2.73 µM
  TGI: 13.8 µM
DU-145 prostate
  GI50: 3.65 µM
  TGI: 14.8 µM
SK-MEL-5 melanoma
  GI50: 1.88 µM
  TGI: 3.74 µM
NCI-H522 lung
  GI50: 0.643 µM
  TGI: 6.79 µM
NCI-H460 lung
  GI50: 2.71 µM
  TGI: 12.2 µM
SF-295 CNS
  GI50: 4.4 µM
  TGI: 16.1 µM
K-562 leukemia
  GI50: 0.983 µM
  TGI: 16.2 µM
PC-3 prostate
  GI50: 1.46 µM
  TGI: 10.4 µM
HOP-92 NSCLC
  GI50: 1.02 µM
  TGI: 3.9 µM
LOX IMVI melanoma
  GI50: 2.9 µM
  TGI: 10.9 µM
SK-MEL-28 melanoma
  GI50: 1.38 µM
  TGI: 5.25 µM
MDA-MB-468 breast
  GI50: 0.378 µM
  TGI: 1.54 µM
SNB-19 CNS
  GI50: 1.92 µM
  TGI: 11.3 µM
HL-60(TB) leukemia
  GI50: 0.293 µM
  TGI: 1.41 µM
KM12 colon
  GI50: 1.72 µM
  TGI: 6.34 µM
ACHN renal
  GI50: 16 µM
  TGI: 29.6 µM
SF-539 CNS
  GI50: 2.85 µM
  TGI: 11 µM
T-47D breast
  GI50: 0.92 µM
  TGI: 11.2 µM
IGROV1 ovarian
  GI50: 1.36 µM
  TGI: 4.66 µM
BT-549 breast
  GI50: 2.45 µM
  TGI: 6.55 µM
RPMI-8226 leukemia
  GI50: 0.412 µM
  TGI: 2.01 µM
OVCAR-8 ovarian
  GI50: 2.93 µM
  TGI: 11.9 µM
CAKI-1 renal
  GI50: 16.7 µM
  TGI: 30.6 µM
UACC-62 melanoma
  GI50: 1.53 µM
  TGI: 3.64 µM
MCF7 breast
  GI50: 1.05 µM
  TGI: 8.18 µM
786-0 renal
  GI50: 5.43 µM
  TGI: 18.9 µM
U251 CNS
  GI50: 0.639 µM
  TGI: 12.4 µM
EKVX NSCLC
  GI50: 3.13 µM
  TGI: 16.2 µM
MOLT-4 leukemia
  GI50: 1.72 µM
  TGI: 7.9 µM
COLO 205 colon
  GI50: 0.377 µM
  TGI: 1.23 µM
OVCAR-5 ovarian
  GI50: 3.19 µM
  TGI: 12.1 µM
NCI/ADR-RES ovarian
  GI50: 56.5 µM
  TGI: > 100 µM
M14 melanoma
  GI50: 2.2 µM
  TGI: 12 µM
SW-620 colon
  GI50: 2.75 µM
  TGI: 15.1 µM
HCT-116 colon
  GI50: 2.94 µM
  TGI: 12 µM
SR leukemia
  GI50: 1.39 µM
  TGI: 5.36 µM
HCC-2998 colon
  GI50: 1.31 µM
  TGI: 10.3 µM
HCT-15 colon
  GI50: 16.1 µM
  TGI: 30.5 µM
MDA-MB-435
  GI50: 2.62 µM
  TGI: 10.7 µM
SN12C renal
  GI50: 2.77 µM
  TGI: 9.91 µM
A498 renal
  GI50: 13.3 µM
  TGI: 27.4 µM
NCI-H23 lung
  GI50: 2.34 µM
  TGI: 8.99 µM
CCRF-CEM leukemia
  GI50: 2.55 µM
  TGI: 10.5 µM
NCI-H226 lung
  GI50: 4.41 µM
  TGI: 17.9 µM
SK-OV-3 ovarian
  GI50: 2.28 µM
  TGI: 6.94 µM
HT29 colon
  GI50: 1.43 µM
  TGI: 3.88 µM
TK-10 renal
  GI50: 3.08 µM
  TGI: 14.9 µM
SF-268 CNS
  GI50: 3.17 µM
  TGI: 12.9 µM
UACC-257 melanoma
  GI50: 1.57 µM
  TGI: 3.9 µM
A549 NSCLC
  GI50: 3.13 µM
  TGI: 13.1 µM

## O=C(CSc1nnc(-c2ccc(-c3nc4ccc(Cl)cc4[nH]3)cc2)o1)Nc1ccccc1
HOP-62 NSCLC
  GI50: 2.18 µM
  TGI: 5.54 µM
MALME-3M melanoma
  GI50: 1.99 µM
  TGI: 5.34 µM
RXF 393 renal
  GI50: 2.38 µM
  TGI: 6.52 µM
OVCAR-3 ovarian
  GI50: 3.3 µM
  TGI: 11.3 µM
HS 578T breast
  GI50: 2.92 µM
  TGI: 13.9 µM
OVCAR-4 ovarian
  GI50: 3.02 µM
  TGI: 11 µM
DU-145 prostate
  GI50: 2.44 µM
  TGI: 5.48 µM
SK-MEL-2 melanoma
  GI50: 14.9 µM
  TGI: 30.5 µM
SK-MEL-5 melanoma
  GI50: 3.72 µM
  TGI: 14.5 µM
NCI-H522 lung
  GI50: 2.74 µM
  TGI: 10.6 µM
NCI-H460 lung
  GI50: 0.9 µM
  TGI: 2.97 µM
K-562 leukemia
  GI50: 3.58 µM
  TGI: > 100 µM
PC-3 prostate
  GI50: 1.82 µM
  TGI: 5.04 µM
SNB-75 CNS
  GI50: 1.65 µM
  TGI: 4.8 µM
HOP-92 NSCLC
  GI50: 2.33 µM
  TGI: 8.78 µM
LOX IMVI melanoma
  GI50: 1.83 µM
  TGI: 4.48 µM
SK-MEL-28 melanoma
  GI50: 2.52 µM
  TGI: 7.01 µM
MDA-MB-231 breast
  GI50: 3.26 µM
  TGI: 11.9 µM
MDA-MB-468 breast
  GI50: 15.6 µM
  TGI: 30 µM
SNB-19 CNS
  GI50: 3.26 µM
  TGI: 12.2 µM
HL-60(TB) leukemia
  GI50: 16.4 µM
  TGI: > 100 µM
KM12 colon
  GI50: 8.4 µM
  TGI: 27.4 µM
ACHN renal
  GI50: 2.64 µM
  TGI: 11 µM
SF-539 CNS
  GI50: 2.24 µM
  TGI: 5.74 µM
T-47D breast
  GI50: 17.1 µM
  TGI: 41.4 µM
IGROV1 ovarian
  GI50: 13.5 µM
  TGI: 28.5 µM
BT-549 breast
  GI50: 2.98 µM
  TGI: 17 µM
RPMI-8226 leukemia
  GI50: 15.5 µM
  TGI: > 100 µM
OVCAR-8 ovarian
  GI50: 3.88 µM
  TGI: 18 µM
UO-31 renal
  GI50: 10.8 µM
  TGI: 22.9 µM
CAKI-1 renal
  GI50: 1.9 µM
  TGI: 3.89 µM
UACC-62 melanoma
  GI50: 6.71 µM
  TGI: 19.5 µM
MCF7 breast
  GI50: 7.37 µM
  TGI: > 100 µM
786-0 renal
  GI50: 1.52 µM
  TGI: 3.44 µM
U251 CNS
  GI50: 4.54 µM
  TGI: 17.9 µM
EKVX NSCLC
  GI50: 4.86 µM
  TGI: 25.6 µM
MOLT-4 leukemia
  GI50: 8.63 µM
  TGI: > 100 µM
COLO 205 colon
  GI50: 14.9 µM
  TGI: 41.9 µM
OVCAR-5 ovarian
  GI50: 7.42 µM
  TGI: 27.2 µM
NCI/ADR-RES ovarian
  GI50: 9.04 µM
  TGI: 43.5 µM
M14 melanoma
  GI50: 3.39 µM
  TGI: 14.1 µM
SW-620 colon
  GI50: 3.54 µM
  TGI: 15.9 µM
HCT-116 colon
  GI50: 3.95 µM
  TGI: 41.1 µM
SR leukemia
  GI50: 16.3 µM
  TGI: > 100 µM
HCC-2998 colon
  GI50: 32.8 µM
  TGI: > 100 µM
HCT-15 colon
  GI50: 8.35 µM
  TGI: > 100 µM
MDA-MB-435
  GI50: 2.17 µM
  TGI: 7.11 µM
SN12C renal
  GI50: 3.26 µM
  TGI: 13.8 µM
A498 renal
  GI50: 15.2 µM
  TGI: 28.5 µM
NCI-H23 lung
  GI50: 3.04 µM
  TGI: 10.1 µM
CCRF-CEM leukemia
  GI50: 7.3 µM
  TGI: 68.8 µM
NCI-H226 lung
  GI50: 1.87 µM
  TGI: 5.28 µM
SK-OV-3 ovarian
  GI50: 3.97 µM
  TGI: 14.9 µM
HT29 colon
  GI50: 4.5 µM
  TGI: 53.6 µM
TK-10 renal
  GI50: 20.9 µM
  TGI: 39 µM
SF-268 CNS
  GI50: 2.44 µM
  TGI: 6.71 µM
UACC-257 melanoma
  GI50: 5.91 µM
  TGI: 21.8 µM
A549 NSCLC
  GI50: 2.57 µM
  TGI: 11.3 µM
